Reference: patent US20050048596A1, “Assay for detecting changes in mitochondrial membrane permeability and method of using same” (priority 2003, published 2005)

Key:
[1] = system: MPT pore; assay: Enzymatic assay (ADH/NADH oxidase/HRP/Amplex Red) of calcium-induced pyridine nucleotide release from isolated liver mitochondria, Resorufin fluorescence; format: biochemical, rat; conditions: BA 20 μM; calcium 100 μM; isolated liver mitochondria 0.125 mg/ml protein; FIG. 5
Method: FIG. 5 illustrates the recording of fluorescence intensity following calcium additions to isolated liver mitochondria in the assay mixture. Controls; only calcium (100 μM) was added. BA; the same amount of calcium (100 μM) was added to mitochondria incubated in the presence of 20 μM Bongrekig acid.
In one preferred embodiment, the assay for pyridine nucleotides measurement may comprise several enzymatic reactions—cyclic and/or coupled—which use oxidized or reduced form of nicotinamide adenine dinucleotides (NAD^+, NADH, respectively) as substrate, thereby providing a detectable final product (FIG. 1). In the first step shown in FIG. 1, alcohol dehydrogenase (ADH) converts ethanol to acetaldehyde in the presence of NAD^+, which is released from mitochondria and reduced to NADH. In the next reaction NADH oxidase (Ox) oxidizes NADH back to NAD^+, and hydrogen peroxide (H2O2) is produced from water in the process. In the last reaction, horseradish peroxidase (HRP) produces a detectable signal in the presence of hydrogen peroxide. […]
Experiments with isolated liver mitochondria were carried out in the same medium as those without; however, no substrate was added, since respiring mitochondria produce superoxide (O2^−). […] Leakage of H2O2 into the medium is expected to give a increase in fluorescence intensity which is not due to the release of pyridine nucleotides from mitochondria. […]

[2] = system: MPT pore; assay: Calcium-induced swelling of isolated liver mitochondria, light scattering at 540 nm; format: biochemical, rat; conditions: BA 20 μM; calcium 100 μM; no enzymes in medium; FIG. 6
From the text: FIG. 6 illustrates calcium-induced swelling of mitochondria isolated from whole liver. The swelling is detected by recording the light scattering of mitochondrial suspension at 540 nm. Experimental conditions are the same as described in FIG. 5, except no enzymes were present in the medium.
The opening of the MPT pore leads to osmotic swelling of mitochondria, which can be detected as decreased light scattering. […] However, a more significant and progressive decrease in light scattering starting at about 300 sec. following the initial calcium pulse occurred.
Male Wistar rats weighing about 300 g were used for isolation of rat liver mitochondria. For examination of calcium-induced release of NAD^+, 0.125 mg/ml of mitochondrial protein were used. The mitochondria were incubated in 2ml of the reaction buffer containing all compounds required for the assay.

Structure (SMILES): CO[C@H](C/C=C\C=C\CC/C=C/C[C@H](C)/C=C/C(=C\C(=O)O)CC(=O)O)/C(C)=C\C=C(/C)C(=O)O [BA, Bongkrekic acid]
- increase in fluorescence following calcium addition (release of pyridine nucleotides) [1]: blocked
- calcium-induced swelling of mitochondria (decrease in light scattering at 540 nm) [2]: inhibited
